# Laboratory results published in ChEMBL document CHEMBL1201862, “PubChem BioAssay data set” (2004).
#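 All cell lines were grown in 96-well plates and treated with compound for 48 hours. At the GI50, growth is halved.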 Calls of active or inactive are those of the source. No stated cut-off is given here; in the data, active = GI50 up to about 1.1 µM and inactive = higher.
# Experiments:
# Test in all cases: inhibition of tumour cell growth, NCI panel, 48 h
# [1] = test system: SR
# [2] = test system: MDA-MB-435
# [3] = test system: OVCAR-8
# [4] = test system: SF-295
# [5] = test system: U-251
# [6] = test system: OVCAR-5
# [7] = test system: M14
# [8] = test system: ACHN
# [9] = test system: CAKI-1
# [10] = test system: Malme-3M
# [11] = test system: OVCAR-4
# [12] = test system: SK-MEL-2
# [13] = test system: Hs-578T
# [14] = test system: SF-539
# [15] = test system: TK-10
# [16] = test system: PC-3
# [17] = test system: UACC-257
# [18] = test system: SK-MEL-28
# [19] = test system: SN12C
# [20] = test system: NCI-H226
# [21] = test system: SW-620
# [22] = test system: HL-60
# [23] = test system: OVCAR-3
# [24] = test system: BT-549
# [25] = test system: HCC 2998
# [26] = test system: NCI-H522
# [27] = test system: HCT-15
# [28] = test system: T47D
# [29] = test system: UO-31
# [30] = test system: HT-29
# [31] = test system: SK-OV-3
# [32] = test system: SNB-19
# [33] = test system: HCT-116
# [34] = test system: SNB-75
# [35] = test system: DU-145
# [36] = test system: LOX IMVI
# [37] = test system: EKVX
# [38] = test system: KM12
# [39] = test system: MDA-MB-231
# [40] = test system: RXF 393
# [41] = test system: UACC-62
# [42] = test system: HOP-62
# [43] = test system: COLO 205
# [44] = test system: MDA-N
# [45] = test system: NCI-H23
# [46] = test system: NCI-H460
# [47] = test system: CCRF-CEM
# [48] = test system: IGROV-1
# [49] = test system: SK-MEL-5
# [50] = test system: 786-0
# [51] = test system: A549
# [52] = test system: SF-268
# [53] = test system: NCI/ADR-RES
# [54] = test system: K562
# [55] = test system: MOLT-4
# [56] = test system: RPMI-8226
# [57] = test system: MCF7
# [58] = test system: A498
structure (smiles),measurement,setting,value
COc1ccc2c(c1)[n+]([O-])c(C#N)c(N1CCN(c3ccc([N+](=O)[O-])cc3)CC1)[n+]2[O-],GI50,[1],0.41 µM (active)
same,GI50,[2],5.13 µM (inactive)
same,GI50,[3],2.09 µM (inactive)
same,GI50,[4],3.77 µM (inactive)
same,GI50,[5],2.41 µM (inactive)
same,GI50,[6],7.1 µM (inactive)
same,GI50,[7],4.52 µM (inactive)
same,GI50,[8],2.7 µM (inactive)
same,GI50,[9],6 µM (inactive)
same,GI50,[10],2.64 µM (inactive)
same,GI50,[11],3.94 µM (inactive)
same,GI50,[12],> 57.4 µM (inactive)
same,GI50,[13],2.55 µM (inactive)
same,GI50,[14],2.21 µM (inactive)
same,GI50,[15],9.68 µM (inactive)
same,GI50,[16],3.34 µM (inactive)
same,GI50,[17],4.42 µM (inactive)
same,GI50,[18],16.3 µM (inactive)
same,GI50,[19],6.37 µM (inactive)
same,GI50,[20],10.7 µM (inactive)
same,GI50,[21],5.55 µM (inactive)
same,GI50,[22],5.42 µM (inactive)
same,GI50,[23],9.91 µM (inactive)
same,GI50,[24],3.69 µM (inactive)
same,GI50,[25],> 100 µM (inactive)
same,GI50,[26],1.81 µM (inactive)
same,GI50,[27],3.16 µM
same,GI50,[28],2.01 µM (inactive)
same,GI50,[29],< 0.01 µM (active)
same,GI50,[30],> 22.4 µM (inactive)
same,GI50,[31],8.09 µM (inactive)
same,GI50,[32],5.22 µM (inactive)
same,GI50,[33],3.66 µM (inactive)
same,GI50,[34],8.53 µM (inactive)
same,GI50,[35],8.22 µM (inactive)
same,GI50,[36],2.36 µM (inactive)
same,GI50,[37],2.74 µM (inactive)
same,GI50,[38],6.87 µM (inactive)
same,GI50,[39],5.31 µM (inactive)
same,GI50,[40],6.89 µM (inactive)
same,GI50,[41],3.76 µM (inactive)
same,GI50,[42],4.24 µM (inactive)
same,GI50,[43],2.24 µM (inactive)
same,GI50,[44],7.35 µM (inactive)
same,GI50,[45],3.23 µM (inactive)
same,GI50,[46],3.63 µM (inactive)
same,GI50,[47],1.92 µM (inactive)
same,GI50,[48],1.49 µM (inactive)
same,GI50,[49],3.59 µM (inactive)
same,GI50,[50],8.63 µM (inactive)
same,GI50,[51],3.08 µM (inactive)
same,GI50,[52],2.91 µM (inactive)
same,GI50,[53],2.45 µM (inactive)
same,GI50,[54],1.45 µM (inactive)
CCN(CC)Cc1ccc(C(=S)Nc2ccc(Cl)cc2)s1,GI50,[1],3.64 µM (inactive)
same,GI50,[2],9.91 µM (inactive)
same,GI50,[3],3.75 µM (inactive)
same,GI50,[4],9.91 µM (inactive)
same,GI50,[5],12 µM (inactive)
same,GI50,[6],11.3 µM (inactive)
same,GI50,[7],3.64 µM (inactive)
same,GI50,[8],14.2 µM (inactive)
same,GI50,[9],12.7 µM (inactive)
same,GI50,[11],10 µM (inactive)
same,GI50,[55],4.54 µM (inactive)
same,GI50,[12],15.1 µM (inactive)
same,GI50,[13],10.4 µM (inactive)
same,GI50,[14],13.9 µM (inactive)
same,GI50,[16],13.2 µM (inactive)
same,GI50,[17],4.81 µM (inactive)
same,GI50,[18],6.92 µM (inactive)
same,GI50,[21],12.2 µM (inactive)
same,GI50,[22],2.75 µM (inactive)
same,GI50,[23],15.3 µM (inactive)
same,GI50,[24],5.18 µM (inactive)
same,GI50,[25],12.6 µM (inactive)
same,GI50,[26],11.4 µM (inactive)
same,GI50,[27],10.7 µM
same,GI50,[28],11.2 µM (inactive)
same,GI50,[29],11.4 µM (inactive)
same,GI50,[30],2.91 µM (inactive)
same,GI50,[31],15.2 µM (inactive)
same,GI50,[32],16.5 µM (inactive)
same,GI50,[56],6.31 µM (inactive)
same,GI50,[33],10.5 µM (inactive)
same,GI50,[35],15 µM (inactive)
same,GI50,[36],4.82 µM (inactive)
same,GI50,[37],4.06 µM (inactive)
same,GI50,[38],11.9 µM (inactive)
same,GI50,[41],9.57 µM (inactive)
same,GI50,[57],11 µM (inactive)
same,GI50,[42],16.3 µM (inactive)
same,GI50,[43],1.99 µM (inactive)
same,GI50,[44],10.7 µM (inactive)
same,GI50,[45],2.34 µM (inactive)
same,GI50,[46],11.9 µM (inactive)
same,GI50,[58],12 µM (inactive)
same,GI50,[47],11.9 µM (inactive)
same,GI50,[48],11.4 µM (inactive)
same,GI50,[49],4.24 µM (inactive)
same,GI50,[50],13.1 µM (inactive)
same,GI50,[51],11.2 µM (inactive)
same,GI50,[52],11.3 µM (inactive)
same,GI50,[53],7.45 µM (inactive)
same,GI50,[54],1.87 µM (inactive)
CCCCn1cnnc1NS(=O)(=O)c1cc(C)c(Cl)cc1SCC(=O)O,GI50,[2],> 10 µM (inactive)
same,GI50,[3],> 10 µM (inactive)
same,GI50,[4],> 10 µM (inactive)
same,GI50,[5],> 10 µM (inactive)
same,GI50,[6],> 10 µM (inactive)
same,GI50,[7],> 10 µM (inactive)
same,GI50,[8],> 10 µM (inactive)
same,GI50,[9],> 10 µM (inactive)
same,GI50,[10],> 10 µM (inactive)
same,GI50,[11],> 10 µM (inactive)
same,GI50,[55],> 10 µM (inactive)
same,GI50,[12],> 10 µM (inactive)
same,GI50,[13],> 10 µM (inactive)
same,GI50,[14],> 10 µM (inactive)
same,GI50,[15],> 10 µM (inactive)
same,GI50,[16],> 10 µM (inactive)
same,GI50,[17],> 10 µM (inactive)
same,GI50,[18],> 10 µM (inactive)
same,GI50,[19],> 10 µM (inactive)
same,GI50,[20],> 10 µM (inactive)
same,GI50,[21],> 10 µM (inactive)
same,GI50,[22],> 10 µM (inactive)
same,GI50,[23],> 10 µM (inactive)
same,GI50,[24],> 10 µM (inactive)
same,GI50,[25],> 10 µM (inactive)
same,GI50,[26],> 10 µM (inactive)
same,GI50,[27],> 10 µM
same,GI50,[28],> 10 µM (inactive)
same,GI50,[29],> 10 µM (inactive)
same,GI50,[30],> 10 µM (inactive)
same,GI50,[31],> 10 µM (inactive)
same,GI50,[32],> 10 µM (inactive)
same,GI50,[56],> 10 µM (inactive)
same,GI50,[33],> 10 µM (inactive)
same,GI50,[34],> 10 µM (inactive)
same,GI50,[35],> 10 µM (inactive)
same,GI50,[36],> 10 µM (inactive)
same,GI50,[37],> 10 µM (inactive)
same,GI50,[38],> 10 µM (inactive)
same,GI50,[39],> 10 µM (inactive)
same,GI50,[40],> 10 µM (inactive)
same,GI50,[41],> 10 µM (inactive)
same,GI50,[42],> 10 µM (inactive)
same,GI50,[43],> 10 µM (inactive)
same,GI50,[44],> 10 µM (inactive)
same,GI50,[45],> 10 µM (inactive)
same,GI50,[46],> 10 µM (inactive)
same,GI50,[58],> 10 µM (inactive)
same,GI50,[47],> 10 µM (inactive)
same,GI50,[48],> 10 µM (inactive)
same,GI50,[49],> 10 µM (inactive)
same,GI50,[50],> 10 µM (inactive)
same,GI50,[51],> 10 µM (inactive)
same,GI50,[52],> 10 µM (inactive)
same,GI50,[53],> 10 µM (inactive)
same,GI50,[54],> 10 µM (inactive)
